“Also recorded” adds a separate entry of the source.
Tested on: rat of gait disturbance model by cauda equina compression
Experiment: Walking ability (treadmill) in rat gait disturbance model by cauda equina compression
Assay type: in vivo
Conditions: spinal canal stenosis model, administered orally for 11 days after the operation, vs negative control (carboxymethylcellulose or toragacanth gum), Dunnett's test, FIG. 1 and FIG. 2
Text: Improvement effect of this invented compound in a rat model of gait disturbance model by cauda equina compression:
<Method of Making an Animal Model>
A rat of gait disturbance model by cauda equina compression was made by the method of Takenobu et al. (J. Neurosci. Methods, 104(2), 191-198 (2002)). Namely, a rat was anesthetized by sodium pentobarbital, removed its dorsal hair and then was fixed its body in the prone position. After disinfection of the back with Chlorhexidine gluconate (5% Hibiten Liquid: Sumitomo Pharmaceuticals), the lumbar was incised along the midline to expose the spine. After excision of the fifth lumbar spinous process, silicon rubber 1×4×1.25 mm (height×length×width) were inserted into the fourth and the sixth lumbar spinal canals from small holes of vertebral arch which was made by mini-drill. […]
The rats were put on the running belt, and adapted to the condition where the grid was sent an electric current (0.04 mA-4 mA) for three minutes or more. […] The distance between the point to walk and the point to give up walk, in other words, the point where it is impossible for them to walk even though the stimulation (sound, contact and electricity) to make them walk was given, was measured with the mileometer built into the equipment. […] The results obtained from the compounds- and negative control-groups were analyzed by the Dunnett's multiple comparison test (*P<0.05). […]

For `O=C1C[C@@]2(C(=O)N1)C(=O)N(Cc1ccc(Br)cc1F)C(=O)c1cccn12` [Compound B, (R)-2-(4-bromo-2-fluorobenzyl)spiro[1,2,3,4-tetrahydropyrrolo[1,2-a]pyrazine-4,3′-pyrrolidine]-1,2′,3,5′-tetrone], the “improvement of walking dysfunction (walking distance on treadmill)” value was “improved the pathology; also recorded: improved the walking dysfunction”.

Source: patent US20060058310A1, “Remedies for vertebral canal stenosis” (priority 2002, published 2006)
